From ChEMBL document CHEMBL4507290 (2021)

Legend:
[1] = system: Tyrosine-protein kinase ABL1 (Homo sapiens), P00519 [F317I]; conditions: Compound concentration 1000.0 nM
[2] = target: Aurora kinase B (Homo sapiens) (UniProt Q96GD4); conditions: Compound concentration 1000.0 nM
[3] = target: Calcium/calmodulin-dependent protein kinase type 1B (Homo sapiens) (UniProt Q6P2M8); conditions: Compound concentration 1000.0 nM
[4] = target: Calcium/calmodulin-dependent protein kinase type II subunit gamma (Homo sapiens) (UniProt Q13555); conditions: Compound concentration 1000.0 nM
[5] = target: Epithelial discoidin domain-containing receptor 1 (Homo sapiens) (UniProt Q08345); conditions: Compound concentration 1000.0 nM
[6] = system: Epidermal growth factor receptor (Homo sapiens), P00533 [UNDEFINED MUTATION]; conditions: Compound concentration 1000.0 nM
[7] = target: Mitogen-activated protein kinase 3 (Homo sapiens) (UniProt P27361); conditions: Compound concentration 1000.0 nM
Mitogen-activated protein kinase 3 (Homo sapiens), sequence (P27361 whole entry): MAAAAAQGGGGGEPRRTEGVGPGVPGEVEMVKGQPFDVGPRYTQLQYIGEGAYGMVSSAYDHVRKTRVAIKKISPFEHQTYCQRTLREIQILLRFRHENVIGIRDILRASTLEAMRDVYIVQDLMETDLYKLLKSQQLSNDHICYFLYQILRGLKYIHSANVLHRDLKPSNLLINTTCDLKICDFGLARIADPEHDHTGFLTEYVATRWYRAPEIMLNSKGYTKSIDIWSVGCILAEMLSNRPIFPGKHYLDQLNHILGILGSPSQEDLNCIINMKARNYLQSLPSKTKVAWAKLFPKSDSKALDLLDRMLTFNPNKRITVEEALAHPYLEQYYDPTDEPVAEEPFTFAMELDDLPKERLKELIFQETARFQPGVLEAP

[8] = target: Mitogen-activated protein kinase 4 (Homo sapiens) (UniProt P31152); conditions: Compound concentration 1000.0 nM
[9] = target: G protein-coupled receptor kinase 3 (Homo sapiens) (UniProt P35626); conditions: Compound concentration 1000.0 nM
[10] = target: Serine/threonine-protein kinase haspin (Homo sapiens) (UniProt Q8TF76); conditions: Compound concentration 1000.0 nM
Serine/threonine-protein kinase haspin (Homo sapiens), sequence (Q8TF76 whole entry): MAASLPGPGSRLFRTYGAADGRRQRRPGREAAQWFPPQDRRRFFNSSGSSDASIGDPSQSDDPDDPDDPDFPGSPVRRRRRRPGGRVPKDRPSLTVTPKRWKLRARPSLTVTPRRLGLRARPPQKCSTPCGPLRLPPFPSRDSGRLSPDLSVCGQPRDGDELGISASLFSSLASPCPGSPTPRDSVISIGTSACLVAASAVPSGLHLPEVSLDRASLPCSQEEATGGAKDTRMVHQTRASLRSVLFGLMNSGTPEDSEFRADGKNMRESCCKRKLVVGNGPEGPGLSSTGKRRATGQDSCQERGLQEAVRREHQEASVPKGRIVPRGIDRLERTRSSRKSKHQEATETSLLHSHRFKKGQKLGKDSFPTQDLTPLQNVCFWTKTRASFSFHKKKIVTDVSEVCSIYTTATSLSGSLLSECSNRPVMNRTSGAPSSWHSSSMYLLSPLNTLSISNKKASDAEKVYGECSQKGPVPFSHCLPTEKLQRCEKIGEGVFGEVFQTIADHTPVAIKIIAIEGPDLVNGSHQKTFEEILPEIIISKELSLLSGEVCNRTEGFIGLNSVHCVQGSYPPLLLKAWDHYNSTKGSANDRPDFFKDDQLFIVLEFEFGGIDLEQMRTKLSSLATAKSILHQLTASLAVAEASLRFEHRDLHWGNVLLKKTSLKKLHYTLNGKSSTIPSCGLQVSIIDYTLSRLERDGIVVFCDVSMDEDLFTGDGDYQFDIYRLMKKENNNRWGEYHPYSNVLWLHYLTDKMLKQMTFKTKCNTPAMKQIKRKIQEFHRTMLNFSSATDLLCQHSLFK

[11] = target: Insulin receptor (Homo sapiens) (UniProt P06213); conditions: Compound concentration 1000.0 nM
Insulin receptor (Homo sapiens), sequence (P06213 28-758 limits assumed): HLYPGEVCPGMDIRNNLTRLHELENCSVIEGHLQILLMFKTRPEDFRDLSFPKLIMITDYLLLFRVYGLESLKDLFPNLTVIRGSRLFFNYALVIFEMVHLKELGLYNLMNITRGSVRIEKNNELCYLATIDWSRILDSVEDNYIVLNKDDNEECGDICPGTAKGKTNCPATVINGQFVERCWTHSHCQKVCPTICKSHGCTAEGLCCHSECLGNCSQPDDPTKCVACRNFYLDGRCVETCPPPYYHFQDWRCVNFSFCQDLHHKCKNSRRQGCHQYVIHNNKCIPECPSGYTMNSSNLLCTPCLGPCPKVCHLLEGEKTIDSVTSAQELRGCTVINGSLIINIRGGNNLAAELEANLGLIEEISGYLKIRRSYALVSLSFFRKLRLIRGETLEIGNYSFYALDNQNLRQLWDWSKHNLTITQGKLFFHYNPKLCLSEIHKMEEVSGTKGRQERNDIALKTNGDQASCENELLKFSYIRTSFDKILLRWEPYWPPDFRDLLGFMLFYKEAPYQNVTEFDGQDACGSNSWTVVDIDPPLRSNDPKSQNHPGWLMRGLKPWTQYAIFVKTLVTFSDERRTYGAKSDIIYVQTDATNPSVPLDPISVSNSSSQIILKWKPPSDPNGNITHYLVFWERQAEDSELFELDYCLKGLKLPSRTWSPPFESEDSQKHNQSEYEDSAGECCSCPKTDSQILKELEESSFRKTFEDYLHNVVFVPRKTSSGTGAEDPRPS
Insulin receptor (Homo sapiens), sequence (P06213 763-1382 limits assumed): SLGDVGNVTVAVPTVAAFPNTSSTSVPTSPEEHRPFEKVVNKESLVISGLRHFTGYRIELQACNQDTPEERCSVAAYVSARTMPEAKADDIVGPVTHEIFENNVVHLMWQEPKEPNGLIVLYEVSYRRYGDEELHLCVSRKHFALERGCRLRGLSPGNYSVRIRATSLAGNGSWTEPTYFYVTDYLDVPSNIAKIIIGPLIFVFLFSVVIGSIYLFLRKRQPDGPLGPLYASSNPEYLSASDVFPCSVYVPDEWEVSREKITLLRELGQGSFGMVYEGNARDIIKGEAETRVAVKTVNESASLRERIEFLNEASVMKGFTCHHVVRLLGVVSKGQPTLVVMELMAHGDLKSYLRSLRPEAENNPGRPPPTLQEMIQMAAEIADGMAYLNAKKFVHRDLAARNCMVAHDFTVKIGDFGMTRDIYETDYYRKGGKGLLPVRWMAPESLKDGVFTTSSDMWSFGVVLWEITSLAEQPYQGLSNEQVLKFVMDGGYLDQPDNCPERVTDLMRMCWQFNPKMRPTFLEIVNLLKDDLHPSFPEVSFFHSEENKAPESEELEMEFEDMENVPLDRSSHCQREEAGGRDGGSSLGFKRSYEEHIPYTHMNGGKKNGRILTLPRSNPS

[12] = target: Leukocyte tyrosine kinase receptor (Homo sapiens) (UniProt P29376); conditions: Compound concentration 1000.0 nM
[13] = target: Mitogen-activated protein kinase kinase kinase 15 (Homo sapiens) (UniProt Q6ZN16); conditions: Compound concentration 1000.0 nM
[14] = target: Mitogen-activated protein kinase kinase kinase kinase 3 (Homo sapiens) (UniProt Q8IVH8); conditions: Compound concentration 1000.0 nM
Mitogen-activated protein kinase kinase kinase kinase 3 (Homo sapiens), sequence (Q8IVH8 whole entry): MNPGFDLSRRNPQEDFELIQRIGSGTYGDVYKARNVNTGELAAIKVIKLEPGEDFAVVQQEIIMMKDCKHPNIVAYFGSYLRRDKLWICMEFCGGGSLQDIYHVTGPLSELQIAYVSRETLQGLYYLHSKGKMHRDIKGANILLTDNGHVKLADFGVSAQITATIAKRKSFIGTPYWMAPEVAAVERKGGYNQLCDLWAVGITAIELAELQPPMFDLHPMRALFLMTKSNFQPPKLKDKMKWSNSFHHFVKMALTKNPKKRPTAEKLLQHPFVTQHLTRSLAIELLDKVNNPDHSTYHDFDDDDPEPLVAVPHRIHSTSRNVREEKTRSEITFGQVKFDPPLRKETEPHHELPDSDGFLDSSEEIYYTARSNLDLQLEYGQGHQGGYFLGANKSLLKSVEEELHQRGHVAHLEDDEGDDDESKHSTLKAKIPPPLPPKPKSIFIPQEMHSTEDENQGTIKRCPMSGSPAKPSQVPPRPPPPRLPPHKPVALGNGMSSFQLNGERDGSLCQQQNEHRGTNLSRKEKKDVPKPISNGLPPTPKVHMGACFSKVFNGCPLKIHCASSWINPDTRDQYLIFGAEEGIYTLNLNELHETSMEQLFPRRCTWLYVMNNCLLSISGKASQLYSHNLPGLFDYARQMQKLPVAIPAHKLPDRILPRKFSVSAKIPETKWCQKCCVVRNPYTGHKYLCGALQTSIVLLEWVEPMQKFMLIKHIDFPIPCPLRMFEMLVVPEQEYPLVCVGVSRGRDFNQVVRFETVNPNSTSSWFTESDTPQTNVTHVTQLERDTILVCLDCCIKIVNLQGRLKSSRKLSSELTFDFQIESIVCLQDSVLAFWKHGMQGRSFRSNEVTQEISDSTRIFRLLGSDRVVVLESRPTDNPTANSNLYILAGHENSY

[15] = target: Serine/threonine-protein kinase MARK2 (Homo sapiens) (UniProt Q7KZI7); conditions: Compound concentration 1000.0 nM
[16] = target: Misshapen-like kinase 1 (Homo sapiens) (UniProt Q8N4C8); conditions: Compound concentration 1000.0 nM
[17] = target: Mitogen-activated protein kinase kinase kinase 10 (Homo sapiens) (UniProt Q02779); conditions: Compound concentration 1000.0 nM
[18] = target: Serine/threonine-protein kinase 26 (Homo sapiens) (UniProt Q9P289); conditions: Compound concentration 1000.0 nM
[19] = target: Mitogen-activated protein kinase 12 (Homo sapiens) (UniProt P53778); conditions: Compound concentration 1000.0 nM
[20] = system: Phosphatidylinositol 4,5-bisphosphate 3-kinase catalytic subunit alpha isoform (Homo sapiens), P42336 [E542K]; conditions: Compound concentration 1000.0 nM
[21] = system: Phosphatidylinositol 4,5-bisphosphate 3-kinase catalytic subunit alpha isoform (Homo sapiens), P42336 [Q546K]; conditions: Compound concentration 1000.0 nM
[22] = target: Protein kinase C delta type (Homo sapiens) (UniProt Q05655); conditions: Compound concentration 1000.0 nM
[23] = target: Serine/threonine-protein kinase D2 (Homo sapiens) (UniProt Q9BZL6); conditions: Compound concentration 1000.0 nM
[24] = target: Serine/threonine-protein kinase SIK3 (Homo sapiens) (UniProt Q9Y2K2); conditions: Compound concentration 1000.0 nM
[25] = system: Proto-oncogene tyrosine-protein kinase receptor Ret (Homo sapiens), P07949 [V804M]; conditions: Compound concentration 1000.0 nM
[26] = target: Ribosomal protein S6 kinase alpha-5 (Homo sapiens) (UniProt O75582); conditions: Compound concentration 1000.0 nM
[27] = target: Ribosomal protein S6 kinase alpha-1 (Homo sapiens) (UniProt Q15418); conditions: Compound concentration 1000.0 nM
Ribosomal protein S6 kinase alpha-1 (Homo sapiens), sequence (Q15418 whole entry): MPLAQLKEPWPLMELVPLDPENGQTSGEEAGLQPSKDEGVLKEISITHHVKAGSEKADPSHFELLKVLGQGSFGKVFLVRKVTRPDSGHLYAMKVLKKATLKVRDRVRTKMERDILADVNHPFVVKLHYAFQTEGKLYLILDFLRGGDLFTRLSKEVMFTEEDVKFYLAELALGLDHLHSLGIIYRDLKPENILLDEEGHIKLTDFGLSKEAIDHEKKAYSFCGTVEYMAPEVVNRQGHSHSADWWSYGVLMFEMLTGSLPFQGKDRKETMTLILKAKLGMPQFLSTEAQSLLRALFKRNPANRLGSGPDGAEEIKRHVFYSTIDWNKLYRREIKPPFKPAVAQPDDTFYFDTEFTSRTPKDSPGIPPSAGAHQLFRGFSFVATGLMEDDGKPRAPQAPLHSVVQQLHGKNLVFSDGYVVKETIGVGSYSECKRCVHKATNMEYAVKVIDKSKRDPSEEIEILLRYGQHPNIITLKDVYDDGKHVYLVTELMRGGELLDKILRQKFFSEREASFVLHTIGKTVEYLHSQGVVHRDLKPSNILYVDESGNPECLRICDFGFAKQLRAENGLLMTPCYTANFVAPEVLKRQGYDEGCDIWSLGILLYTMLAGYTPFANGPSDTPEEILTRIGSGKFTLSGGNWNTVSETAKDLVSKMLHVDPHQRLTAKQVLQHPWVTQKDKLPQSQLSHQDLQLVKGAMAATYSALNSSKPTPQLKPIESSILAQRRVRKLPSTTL

[28] = target: Ribosomal protein S6 kinase alpha-3 (Homo sapiens) (UniProt P51812); conditions: Compound concentration 1000.0 nM
[29] = target: Ribosomal protein S6 kinase beta-1 (Homo sapiens) (UniProt P23443); conditions: Compound concentration 1000.0 nM
[30] = target: Serine/threonine-protein kinase Sgk1 (Homo sapiens) (UniProt O00141); conditions: Compound concentration 1000.0 nM
[31] = target: Tyrosine-protein kinase Srms (Homo sapiens) (UniProt Q9H3Y6); conditions: Compound concentration 1000.0 nM
[32] = target: STE20/SPS1-related proline-alanine-rich protein kinase (Homo sapiens) (UniProt Q9UEW8); conditions: Compound concentration 1000.0 nM
[33] = target: Serine/threonine-protein kinase TAO3 (Homo sapiens) (UniProt Q9H2K8); conditions: Compound concentration 1000.0 nM
Serine/threonine-protein kinase TAO3 (Homo sapiens), sequence (Q9H2K8 whole entry): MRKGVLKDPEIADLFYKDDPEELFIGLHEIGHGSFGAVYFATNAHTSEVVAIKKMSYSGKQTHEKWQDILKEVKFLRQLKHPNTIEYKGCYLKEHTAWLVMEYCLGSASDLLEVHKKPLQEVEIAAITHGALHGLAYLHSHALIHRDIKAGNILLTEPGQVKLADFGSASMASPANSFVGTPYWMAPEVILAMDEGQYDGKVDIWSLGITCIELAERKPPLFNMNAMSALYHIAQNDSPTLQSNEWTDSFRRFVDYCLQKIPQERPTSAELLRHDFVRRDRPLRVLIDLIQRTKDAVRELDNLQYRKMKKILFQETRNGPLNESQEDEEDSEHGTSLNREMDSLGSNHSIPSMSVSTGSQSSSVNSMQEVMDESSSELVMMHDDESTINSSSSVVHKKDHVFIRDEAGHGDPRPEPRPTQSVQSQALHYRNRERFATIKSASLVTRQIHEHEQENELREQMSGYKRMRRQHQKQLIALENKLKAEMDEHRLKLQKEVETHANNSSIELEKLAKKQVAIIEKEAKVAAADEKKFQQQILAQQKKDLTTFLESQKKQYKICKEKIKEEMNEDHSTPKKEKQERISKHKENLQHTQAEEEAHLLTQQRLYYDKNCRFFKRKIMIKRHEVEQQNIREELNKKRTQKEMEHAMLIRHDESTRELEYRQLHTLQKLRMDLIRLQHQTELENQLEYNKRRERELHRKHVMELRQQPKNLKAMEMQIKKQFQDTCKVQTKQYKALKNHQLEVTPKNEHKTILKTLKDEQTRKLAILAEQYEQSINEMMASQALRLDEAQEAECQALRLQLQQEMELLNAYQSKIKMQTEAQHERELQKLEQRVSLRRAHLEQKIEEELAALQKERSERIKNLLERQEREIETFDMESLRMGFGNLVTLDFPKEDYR

[34] = target: Serine/threonine-protein kinase TBK1 (Homo sapiens) (UniProt Q9UHD2); conditions: Compound concentration 1000.0 nM
[35] = target: TGF-beta receptor type-2 (Homo sapiens) (UniProt P37173); conditions: Compound concentration 1000.0 nM
[36] = target: Non-receptor tyrosine-protein kinase TNK1 (Homo sapiens) (UniProt Q13470); conditions: Compound concentration 1000.0 nM
[37] = target: BDNF/NT-3 growth factors receptor (Homo sapiens) (UniProt Q16620); conditions: Compound concentration 1000.0 nM
[38] = target: Testis-specific serine/threonine-protein kinase 3 (Homo sapiens) (UniProt Q96PN8); conditions: Compound concentration 1000.0 nM
[39] = target: Wee1-like protein kinase 2 (Homo sapiens) (UniProt P0C1S8); conditions: Compound concentration 1000.0 nM
[40] = target: 5-hydroxytryptamine receptor 7 (Homo sapiens) (UniProt P34969); conditions: Compound concentration 10.0 uM
[41] = target: D(4) dopamine receptor (Homo sapiens) (UniProt P21917); conditions: Compound concentration 10.0 uM
[42] = target: Alpha-2B adrenergic receptor (Homo sapiens) (UniProt P18089); conditions: Compound concentration 10.0 uM
[43] = target: Beta-1 adrenergic receptor (Homo sapiens) (UniProt P08588); conditions: Compound concentration 10.0 uM
[44] = target: GABA-A receptor; anion channel (Rattus norvegicus) (UniProt O09028+P15431+P18506+P18508+P19969+P20236+P23574+P23576+P28471+P28473+P30191+P62813+P63079+P63138+Q91ZM7+Q9ES14); conditions: Compound concentration 10.0 uM

CN([C@@H]1CCc2c(CC(=O)O)c3ccccc3n2C1)S(=O)(=O)c1ccc(F)cc1 [MK-7246]
inactive: residual activity [1] 79% | residual activity [2] 91% | residual activity [3] 87% | residual activity [4] 100% | residual activity [5] 78% | residual activity [6] 100% | residual activity [7] 100% | residual activity [8] 100% | residual activity [9] 70% | residual activity [10] 100% | residual activity [11] 100% | residual activity [12] 100% | residual activity [13] 100% | residual activity [14] 100% | residual activity [15] 100% | residual activity [16] 100% | residual activity [17] 100% | residual activity [18] 79% | residual activity [19] 94% | residual activity [20] 86% | residual activity [21] 100% | residual activity [22] 100% | residual activity [23] 100% | residual activity [24] 98% | residual activity [25] 98% | residual activity [26] 79% | residual activity [27] 100% | residual activity [28] 100% | residual activity [29] 100% | residual activity [30] 100% | residual activity [31] 81% | residual activity [32] 100% | residual activity [33] 73% | residual activity [34] 100% | residual activity [35] 100% | residual activity [36] 99% | residual activity [37] 100% | residual activity [38] 100% | residual activity [39] 100% | inhibition [40] 4.11% | inhibition [41] 3.14% | inhibition [42] 12.7% | inhibition [43] -2.68% | inhibition [44] 27.7%

CN([C@@H]1CCc2c(CC(=O)O)c3cc(S(C)(=O)=O)ccc3n2C1)S(=O)(=O)c1ccc(F)cc1
inactive: residual activity [1] 75% | residual activity [2] 83% | residual activity [3] 90% | residual activity [4] 100% | residual activity [5] 100% | residual activity [6] 82% | residual activity [7] 92% | residual activity [8] 100% | residual activity [9] 81% | residual activity [10] 83% | residual activity [11] 100% | residual activity [12] 100% | residual activity [13] 93% | residual activity [14] 100% | residual activity [15] 100% | residual activity [16] 92% | residual activity [17] 100% | residual activity [18] 77% | residual activity [19] 100% | residual activity [20] 88% | residual activity [21] 100% | residual activity [22] 100% | residual activity [23] 100% | residual activity [24] 89% | residual activity [25] 100% | residual activity [26] 71% | residual activity [27] 91% | residual activity [28] 80% | residual activity [29] 100% | residual activity [30] 100% | residual activity [31] 88% | residual activity [32] 86% | residual activity [33] 73% | residual activity [34] 97% | residual activity [35] 67% | residual activity [36] 91% | residual activity [37] 100% | residual activity [38] 100% | residual activity [39] 95% | inhibition [40] -3.44% | inhibition [41] 2.8% | inhibition [42] -2.39% | inhibition [43] -6.18% | inhibition [44] 45%
